In US20210121527A1, “METHODS OF TREATING MINIMAL RESIDUAL CANCER” (ICAHN SCHOOL OF MEDICINE AT MOUNT SINAI, priority 2018, published 2021):

Experiments:
Test in all cases: DiscoveRx scanMAX kinase profiling
Format in all cases: binding
AKT1 = target: T1, AKT1 (Homo sapiens, UniProt P31749); conditions: read-out: Direct inhibitory activity on AKT1 (KINOMEscan)
T1 construct: purchased DiscoverX (San Diego, Calif.) scanMAX
Description: (§1) Biochemical assays: Recombinant human EIF2AK3 (PERK) catalytic domain (amino acids 536-1116; Cat # PV5107), GFP-eIF2a (Cat # PV4809) substrate, and Terbium-labelled phospho-eIF2a antibody (Cat # PR8956B) were purchased from Invitrogen (Carlsbad, Calif.). HIS-SUMO-GCN2 catalytic domain (amino acids 584-1019) was expressed and purified from E. coli. TR-FRET kinase assays were performed in the absence or presence of inhibitors in a reaction buffer consisting of 50 mM HEPES, pH 7.5, 10 mMMgCl2, 1.0 mM EGTA, and 0.01% Brij-35, and 100-200 nM GFP-eIF2a substrate. […] Following the addition of test compound, the reaction was initiated by addition of enzyme and incubated at room temperature for 45 minutes. The reaction was stopped by addition of EDTA to a final concentration of 10 mM and Terbium-labelled phospho-eIF2α antibody was added at a final concentration of 2 nM and incubated for 90 minutes. The resulting fluorescence was monitored in an EnVison® Multilabel reader (PerkinElmer, Waltham, Mass.). TR-FRET ratios and the resulting IC50 values were determined from the fitted inhibition curves. Biochemical specificity profiling was performed at Cerep (Redmond, Wash.) and DiscoverX (San Diego, Calif.).

AKT2 = target: T2, AKT2 (Homo sapiens, UniProt P31751); conditions: read-out: Direct inhibitory activity on AKT2 (KINOMEscan)
T2 construct: purchased DiscoverX (San Diego, Calif.) scanMAX
T2 sequence (P31751 whole entry): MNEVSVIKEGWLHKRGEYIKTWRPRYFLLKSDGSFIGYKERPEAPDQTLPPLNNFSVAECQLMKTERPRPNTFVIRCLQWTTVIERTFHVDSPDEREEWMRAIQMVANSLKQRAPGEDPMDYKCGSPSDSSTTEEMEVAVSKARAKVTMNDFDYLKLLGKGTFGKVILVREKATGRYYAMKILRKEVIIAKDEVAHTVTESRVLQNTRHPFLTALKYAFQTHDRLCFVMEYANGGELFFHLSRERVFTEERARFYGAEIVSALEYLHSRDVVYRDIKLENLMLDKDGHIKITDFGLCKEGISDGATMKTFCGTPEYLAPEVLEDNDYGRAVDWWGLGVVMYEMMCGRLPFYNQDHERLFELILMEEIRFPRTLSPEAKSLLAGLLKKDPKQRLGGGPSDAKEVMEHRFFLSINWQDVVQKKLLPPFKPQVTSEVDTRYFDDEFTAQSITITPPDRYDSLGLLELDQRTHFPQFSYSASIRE
Description: as §1

CSK = target: T3, CSK (Homo sapiens, UniProt P41240); conditions: read-out: Direct inhibitory activity on CSK (KINOMEscan)
T3 construct: purchased DiscoverX (San Diego, Calif.)
Description: as §1

EGFR = target: T4, EGFR (Homo sapiens, UniProt P00533); conditions: read-out: Direct inhibitory activity on EGFR (KINOMEscan)
T4 construct: purchased DiscoverX (San Diego, Calif.) scanMAX
Description: as §1

EIF2AK1 = target: T5, EIF2AK1 (Homo sapiens, UniProt Q9BQI3); conditions: read-out: Inhibition of EIF2AK1 (KINOMEscan)
T5 construct: purchased DiscoverX (San Diego, Calif.) scanMAX
T5 sequence (Q9BQI3 whole entry): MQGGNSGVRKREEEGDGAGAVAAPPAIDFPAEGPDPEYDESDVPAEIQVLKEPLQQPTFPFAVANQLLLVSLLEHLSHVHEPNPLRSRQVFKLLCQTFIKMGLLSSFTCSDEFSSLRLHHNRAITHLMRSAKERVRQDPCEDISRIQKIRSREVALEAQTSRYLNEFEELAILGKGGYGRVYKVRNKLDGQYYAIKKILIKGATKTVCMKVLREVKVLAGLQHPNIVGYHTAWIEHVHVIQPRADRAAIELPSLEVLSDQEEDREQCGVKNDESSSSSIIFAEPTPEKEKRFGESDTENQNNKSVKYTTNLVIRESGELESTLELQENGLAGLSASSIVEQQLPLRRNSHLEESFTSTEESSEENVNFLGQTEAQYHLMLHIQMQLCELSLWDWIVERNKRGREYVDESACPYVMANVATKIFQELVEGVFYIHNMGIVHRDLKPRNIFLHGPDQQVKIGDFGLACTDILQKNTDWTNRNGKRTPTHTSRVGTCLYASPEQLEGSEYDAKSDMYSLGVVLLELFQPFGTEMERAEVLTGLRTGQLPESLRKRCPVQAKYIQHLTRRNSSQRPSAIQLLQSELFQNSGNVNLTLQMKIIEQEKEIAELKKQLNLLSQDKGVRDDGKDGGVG
Description: as §1

ERBB2 = target: T6, ERBB2 (Homo sapiens, UniProt P04626); conditions: read-out: Direct inhibitory activity on ERBB2 (KINOMEscan)
T6 construct: purchased DiscoverX (San Diego, Calif.) scanMAX
Description: as §1

ERBB3 = target: T7, ERBB3 (Homo sapiens, UniProt P21860); conditions: read-out: Direct inhibitory activity on ERBB3 (KINOMEscan)
T7 construct: purchased DiscoverX (San Diego, Calif.) scanMAX
T7 sequence (P21860 20-1342): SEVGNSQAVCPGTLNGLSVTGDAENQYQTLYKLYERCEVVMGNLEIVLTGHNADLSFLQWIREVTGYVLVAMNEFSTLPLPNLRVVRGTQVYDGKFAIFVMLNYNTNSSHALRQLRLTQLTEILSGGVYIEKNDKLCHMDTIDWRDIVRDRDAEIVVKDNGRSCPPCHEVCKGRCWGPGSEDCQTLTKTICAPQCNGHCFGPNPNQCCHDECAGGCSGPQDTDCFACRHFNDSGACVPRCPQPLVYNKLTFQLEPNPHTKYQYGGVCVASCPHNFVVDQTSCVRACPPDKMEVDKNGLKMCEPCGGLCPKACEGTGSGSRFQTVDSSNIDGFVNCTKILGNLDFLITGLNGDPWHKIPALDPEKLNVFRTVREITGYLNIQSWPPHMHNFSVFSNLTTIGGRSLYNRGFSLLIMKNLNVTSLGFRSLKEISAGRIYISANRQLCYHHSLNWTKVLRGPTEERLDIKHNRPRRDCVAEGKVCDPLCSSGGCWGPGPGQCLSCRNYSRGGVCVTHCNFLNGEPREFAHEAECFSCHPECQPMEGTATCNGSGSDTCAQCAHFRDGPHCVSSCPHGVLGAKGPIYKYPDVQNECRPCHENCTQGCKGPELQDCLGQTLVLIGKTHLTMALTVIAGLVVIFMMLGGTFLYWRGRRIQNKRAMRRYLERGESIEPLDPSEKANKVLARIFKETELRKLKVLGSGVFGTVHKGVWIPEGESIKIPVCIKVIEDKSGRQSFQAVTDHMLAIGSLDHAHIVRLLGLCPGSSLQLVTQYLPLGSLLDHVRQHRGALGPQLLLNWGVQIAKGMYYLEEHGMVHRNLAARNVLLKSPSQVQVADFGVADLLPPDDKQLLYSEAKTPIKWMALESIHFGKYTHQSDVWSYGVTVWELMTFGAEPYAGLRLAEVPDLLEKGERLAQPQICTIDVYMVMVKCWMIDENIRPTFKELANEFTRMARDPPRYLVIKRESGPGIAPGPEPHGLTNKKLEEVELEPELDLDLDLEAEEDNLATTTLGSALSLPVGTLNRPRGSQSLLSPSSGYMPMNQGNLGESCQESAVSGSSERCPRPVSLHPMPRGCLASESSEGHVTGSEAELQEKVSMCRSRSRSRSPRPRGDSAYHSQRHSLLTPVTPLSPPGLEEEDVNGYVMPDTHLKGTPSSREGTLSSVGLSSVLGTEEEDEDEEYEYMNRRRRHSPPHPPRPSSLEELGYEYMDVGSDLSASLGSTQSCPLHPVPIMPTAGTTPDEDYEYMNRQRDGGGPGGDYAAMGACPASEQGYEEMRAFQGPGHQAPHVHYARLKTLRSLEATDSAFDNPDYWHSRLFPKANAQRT
Description: as §1

ERBB4 = target: T8, ERBB4 (Homo sapiens, UniProt Q15303); conditions: read-out: Direct inhibitory activity on ERBB4 (KINOMEscan)
T8 construct: purchased DiscoverX (San Diego, Calif.) scanMAX
T8 sequence (Q15303 26-1308): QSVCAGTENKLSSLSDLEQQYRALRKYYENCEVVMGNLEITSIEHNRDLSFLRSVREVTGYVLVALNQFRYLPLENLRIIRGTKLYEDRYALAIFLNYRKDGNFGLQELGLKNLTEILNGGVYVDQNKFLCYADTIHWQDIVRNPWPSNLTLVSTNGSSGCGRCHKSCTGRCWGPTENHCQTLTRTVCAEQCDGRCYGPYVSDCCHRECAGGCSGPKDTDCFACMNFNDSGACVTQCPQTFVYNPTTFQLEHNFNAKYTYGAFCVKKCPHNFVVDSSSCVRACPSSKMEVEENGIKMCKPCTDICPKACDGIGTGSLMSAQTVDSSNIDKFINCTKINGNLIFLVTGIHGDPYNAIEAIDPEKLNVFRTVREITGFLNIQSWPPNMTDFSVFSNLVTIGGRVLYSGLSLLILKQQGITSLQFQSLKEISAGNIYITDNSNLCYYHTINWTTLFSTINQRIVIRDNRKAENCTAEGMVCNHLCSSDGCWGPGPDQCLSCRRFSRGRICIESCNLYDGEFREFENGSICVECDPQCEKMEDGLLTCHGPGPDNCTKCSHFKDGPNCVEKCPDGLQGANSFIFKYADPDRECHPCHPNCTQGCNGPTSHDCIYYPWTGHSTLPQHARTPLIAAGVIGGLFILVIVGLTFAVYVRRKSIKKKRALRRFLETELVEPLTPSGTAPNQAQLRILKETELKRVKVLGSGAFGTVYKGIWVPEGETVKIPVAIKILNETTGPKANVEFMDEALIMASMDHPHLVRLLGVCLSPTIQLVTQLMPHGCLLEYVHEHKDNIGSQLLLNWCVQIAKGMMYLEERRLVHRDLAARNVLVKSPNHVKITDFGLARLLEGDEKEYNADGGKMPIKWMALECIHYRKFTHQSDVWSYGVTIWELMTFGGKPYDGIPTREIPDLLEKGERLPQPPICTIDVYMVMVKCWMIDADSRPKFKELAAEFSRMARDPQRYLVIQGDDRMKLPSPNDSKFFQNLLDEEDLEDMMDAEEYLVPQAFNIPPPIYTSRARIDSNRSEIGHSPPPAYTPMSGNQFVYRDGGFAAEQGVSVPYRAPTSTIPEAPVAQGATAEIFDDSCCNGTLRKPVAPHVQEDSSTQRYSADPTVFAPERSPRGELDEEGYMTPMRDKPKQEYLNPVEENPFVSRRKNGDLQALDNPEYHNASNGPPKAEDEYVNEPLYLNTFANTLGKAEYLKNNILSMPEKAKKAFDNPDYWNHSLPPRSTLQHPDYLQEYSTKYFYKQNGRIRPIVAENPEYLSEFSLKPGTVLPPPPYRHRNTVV
Description: as §1

ERK2 (MAPK1) = target: T9, ERK2 (MAPK1) (Homo sapiens, UniProt P28482); conditions: read-out: Direct inhibitory activity on ERK2 (KINOMEscan)
T9 construct: purchased DiscoverX (San Diego, Calif.) scanMAX
T9 sequence (P28482 whole entry): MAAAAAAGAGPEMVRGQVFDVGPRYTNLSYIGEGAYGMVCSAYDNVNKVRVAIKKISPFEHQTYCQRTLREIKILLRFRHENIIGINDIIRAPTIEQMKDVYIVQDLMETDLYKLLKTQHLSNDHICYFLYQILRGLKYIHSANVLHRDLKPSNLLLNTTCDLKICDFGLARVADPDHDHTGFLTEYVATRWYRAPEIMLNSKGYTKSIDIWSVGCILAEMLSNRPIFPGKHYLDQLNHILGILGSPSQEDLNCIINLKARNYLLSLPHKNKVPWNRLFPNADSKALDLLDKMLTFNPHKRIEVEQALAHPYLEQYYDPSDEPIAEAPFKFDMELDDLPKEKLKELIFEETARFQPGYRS
Description: as §1

ERK4 (MAPK4) = target: T10, ERK4 (MAPK4) (Homo sapiens, UniProt P31152); conditions: read-out: Direct inhibitory activity on ERK4 (KINOMEscan)
T10 construct: purchased DiscoverX (San Diego, Calif.) scanMAX
Description: as §1

ERK5 (MAPK7) = target: T11, ERK5 (MAPK7) (Homo sapiens, UniProt Q13164); conditions: read-out: Direct inhibitory activity on ERK5 (KINOMEscan)
T11 construct: purchased DiscoverX (San Diego, Calif.) scanMAX
T11 sequence (Q13164 whole entry): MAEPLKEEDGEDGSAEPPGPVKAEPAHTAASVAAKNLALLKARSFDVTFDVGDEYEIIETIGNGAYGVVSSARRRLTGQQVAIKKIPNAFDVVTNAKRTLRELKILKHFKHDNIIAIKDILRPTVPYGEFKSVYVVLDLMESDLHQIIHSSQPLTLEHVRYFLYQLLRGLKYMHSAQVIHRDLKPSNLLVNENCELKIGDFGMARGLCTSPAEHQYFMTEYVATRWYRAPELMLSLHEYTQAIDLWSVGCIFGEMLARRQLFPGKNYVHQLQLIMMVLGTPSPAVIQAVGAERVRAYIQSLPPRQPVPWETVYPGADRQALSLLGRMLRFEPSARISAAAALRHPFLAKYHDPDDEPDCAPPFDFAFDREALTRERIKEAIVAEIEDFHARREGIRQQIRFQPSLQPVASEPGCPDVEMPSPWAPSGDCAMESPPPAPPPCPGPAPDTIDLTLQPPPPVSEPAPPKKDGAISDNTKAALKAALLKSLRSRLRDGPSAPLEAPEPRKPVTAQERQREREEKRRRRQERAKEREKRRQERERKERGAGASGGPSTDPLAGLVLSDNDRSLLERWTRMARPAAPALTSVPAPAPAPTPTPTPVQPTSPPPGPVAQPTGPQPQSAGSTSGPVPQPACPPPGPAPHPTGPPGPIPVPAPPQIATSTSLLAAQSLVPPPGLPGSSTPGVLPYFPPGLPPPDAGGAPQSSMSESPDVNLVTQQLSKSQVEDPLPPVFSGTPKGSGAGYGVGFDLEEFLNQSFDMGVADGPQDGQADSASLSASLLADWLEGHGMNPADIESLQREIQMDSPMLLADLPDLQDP
Description: as §1

PIK3CA = target: T12, PIK3CA (Homo sapiens, UniProt P42336); conditions: read-out: Direct inhibitory activity on PIK3CA (KINOMEscan)
T12 construct: purchased DiscoverX (San Diego, Calif.)
Description: as §1

PIK3CB = target: T13, PIK3CB (Homo sapiens, UniProt P42338); conditions: read-out: Direct inhibitory activity on PIK3CB (KINOMEscan)
T13 construct: purchased DiscoverX (San Diego, Calif.)
Description: as §1

PIK3CG = target: T14, PIK3CG (Homo sapiens, UniProt P48736); conditions: read-out: Direct inhibitory activity on PIK3CG (KINOMEscan)
T14 construct: purchased DiscoverX (San Diego, Calif.)
Description: as §1

PYK2 (PTK2B) = target: T15, PYK2 (PTK2B) (Homo sapiens, UniProt Q14289); conditions: read-out: Direct inhibitory activity on PYK2 (KINOMEscan)
T15 construct: purchased DiscoverX (San Diego, Calif.)
Description: as §1

SYK = target: T16, SYK (Homo sapiens, UniProt P43405); conditions: read-out: Direct inhibitory activity on SYK (KINOMEscan)
T16 construct: purchased DiscoverX (San Diego, Calif.) scanMAX
Description: as §1

Structure (SMILES): Cc1cccc(CC(=O)N2CCc3c2ccc(-c2cn(C)c4ncnc(N)c24)c3F)n1 [GSK2656157, reference compound]
- inhibition at 0.2 µM (AKT1): 14%
- inhibition at 2 µM (AKT1): 32%
- inhibition at 20 µM (AKT1): 0%
- inhibition at 0.2 µM (AKT2): 0%
- inhibition at 2 µM (AKT2): 4%
- inhibition at 20 µM (AKT2): 8%
- inhibition at 0.2 µM (CSK): 0%
- inhibition at 2 µM (CSK): 33%
- inhibition at 20 µM (CSK): 64%
- inhibition at 0.2 µM (EGFR): 18%
- inhibition at 2 µM (EGFR): 16%
- inhibition at 20 µM (EGFR): 50%
- inhibition at 0.2 µM (EIF2AK1): 8%
- inhibition at 2 µM (EIF2AK1): 77%
- inhibition at 20 µM (EIF2AK1): 95%
- inhibition at 0.2 µM (ERBB2): 57%
- inhibition at 2 µM (ERBB2): 64%
- inhibition at 20 µM (ERBB2): 97%
- inhibition at 0.2 µM (ERBB3): 40%
- inhibition at 2 µM (ERBB3): 22%
- inhibition at 20 µM (ERBB3): 53%
- inhibition at 0.2 µM (ERBB4): 0%
- inhibition at 2 µM (ERBB4): 0%
- inhibition at 20 µM (ERBB4): 0%
- inhibition at 0.2 µM (ERK2 (MAPK1)): 0%
- inhibition at 2 µM (ERK2 (MAPK1)): 0%
- inhibition at 20 µM (ERK2 (MAPK1)): 0%
- inhibition at 0.2 µM (ERK4 (MAPK4)): 0%
- inhibition at 2 µM (ERK4 (MAPK4)): 35%
- inhibition at 20 µM (ERK4 (MAPK4)): 0%
- inhibition at 0.2 µM (ERK5 (MAPK7)): 4%
- inhibition at 2 µM (ERK5 (MAPK7)): 23%
- inhibition at 20 µM (ERK5 (MAPK7)): 12%
- inhibition at 0.2 µM (PIK3CA): 0%
- inhibition at 2 µM (PIK3CA): 8%
- inhibition at 20 µM (PIK3CA): 0%
- inhibition at 0.2 µM (PIK3CB): 0%
- inhibition at 2 µM (PIK3CB): 0%
- inhibition at 20 µM (PIK3CB): 0%
- inhibition at 0.2 µM (PIK3CG): 36%
- inhibition at 2 µM (PIK3CG): 47%
- inhibition at 20 µM (PIK3CG): 50%
- inhibition at 0.2 µM (PYK2 (PTK2B)): 0%
- inhibition at 2 µM (PYK2 (PTK2B)): 0%
- inhibition at 20 µM (PYK2 (PTK2B)): 3%
- inhibition at 0.2 µM (SYK): 0%
- inhibition at 2 µM (SYK): 12%
- inhibition at 20 µM (SYK): 23%

Structure (SMILES): Cc1cc(NC(=O)[C@H](O)c2cc(F)cc(F)c2)ccc1-c1cnc(N)c(C(=O)NC(C)C)c1 [LY4, 2-amino-5-[4-[[(2R)-2-(3,5-difluorophenyl)-2-hydroxy-acetyl]amino]-2-methyl-phenyl]-N-isopropyl-pyridine-3-carboxamide]
- inhibition at 0.2 µM (AKT1): 0%
- inhibition at 2 µM (AKT1): 5%
- inhibition at 20 µM (AKT1): 0%
- inhibition at 0.2 µM (AKT2): 0%
- inhibition at 2 µM (AKT2): 0%
- inhibition at 20 µM (AKT2): 0%
- inhibition at 0.2 µM (CSK): 31%
- inhibition at 2 µM (CSK): 0%
- inhibition at 20 µM (CSK): 14%
- inhibition at 0.2 µM (EGFR): 30%
- inhibition at 2 µM (EGFR): 23%
- inhibition at 20 µM (EGFR): 16%
- inhibition at 0.2 µM (EIF2AK1): 0%
- inhibition at 2 µM (EIF2AK1): 0%
- inhibition at 20 µM (EIF2AK1): 35%
- inhibition at 0.2 µM (ERBB2): 0%
- inhibition at 2 µM (ERBB2): 0%
- inhibition at 20 µM (ERBB2): 0%
- inhibition at 0.2 µM (ERBB3): 0%
- inhibition at 2 µM (ERBB3): 0%
- inhibition at 20 µM (ERBB3): 0%
- inhibition at 0.2 µM (ERBB4): 0%
- inhibition at 2 µM (ERBB4): 0%
- inhibition at 20 µM (ERBB4): 4%
- inhibition at 0.2 µM (ERK2 (MAPK1)): 0%
- inhibition at 2 µM (ERK2 (MAPK1)): 0%
- inhibition at 20 µM (ERK2 (MAPK1)): 1%
- inhibition at 0.2 µM (ERK4 (MAPK4)): 0%
- inhibition at 2 µM (ERK4 (MAPK4)): 0%
- inhibition at 20 µM (ERK4 (MAPK4)): 0%
- inhibition at 0.2 µM (ERK5 (MAPK7)): 0%
- inhibition at 2 µM (ERK5 (MAPK7)): 0%
- inhibition at 20 µM (ERK5 (MAPK7)): 4%
- inhibition at 0.2 µM (PIK3CA): 9%
- inhibition at 2 µM (PIK3CA): 0%
- inhibition at 20 µM (PIK3CA): 8%
- inhibition at 0.2 µM (PIK3CB): 0%
- inhibition at 2 µM (PIK3CB): 0%
- inhibition at 20 µM (PIK3CB): 12%
- inhibition at 0.2 µM (PIK3CG): 24%
- inhibition at 2 µM (PIK3CG): 0%
- inhibition at 20 µM (PIK3CG): 26%
- inhibition at 0.2 µM (PYK2 (PTK2B)): 0%
- inhibition at 2 µM (PYK2 (PTK2B)): 0%
- inhibition at 20 µM (PYK2 (PTK2B)): 6%
- inhibition at 0.2 µM (SYK): 0%
- inhibition at 2 µM (SYK): 0%
- inhibition at 20 µM (SYK): 0%
